Measured values published in ChEMBL document CHEMBL5252560 (Bioorg Med Chem Lett, 2023).
Calls of active or inactive are those of the source. No cut-off for these calls is given here.

Legend:
Tubulin (Homo sapiens) [1] = molecular target: T1, Tubulin (Homo sapiens) (UniProt P68371+Q9H4B7+P0DPH7+P68366+Q13509+Q71U36+P04350+Q3ZCM7+P07437+P68363+Q9BQE3+Q6PEY2+Q13885+Q9BVA1+Q9BUF5); assay: Disruption of microtubule assembly in human HepG2 cells assessed as changes in cell morphology at 100 nM by immunofluorescence analysis; type: cell-based
HepG2 [2] = assay: Induction of cell cycle arrest in human HepG2 cells assessed as accumulation of cells at G2 phase at 50 nM by propidium iodide staining based flow cytometric analysis (reference value: 8.58%); type: functional
HepG2 [3] = assay: Inhibition of cell migration in human HepG2 cells at 25 to 100 nM incubated for 48 hrs by wound healing assay; type: functional, cell-based; details: dose 25-100 nM
HepG2 [4] = assay: Induction of cell cycle arrest in human HepG2 cells assessed as accumulation of cells at S phase at 100 nM by propidium iodide staining based flow cytometric analysis (reference value: 19.34%); type: functional
HepG2 [5] = assay: Antiproliferative activity against human HepG2 cells assessed as cell growth inhibition; type: functional, cell-based
HepG2 [6] = assay: Induction of cell cycle arrest in human HepG2 cells assessed as accumulation of cells at G2 phase at 50 nM incubated for 6 hrs by propidium iodide staining based flow cytometric analysis (reference value: 15.06%); type: functional
Y79 = assay: Antiproliferative activity against human Y79 cells assessed as cell growth inhibition; type: functional, cell-based
HepG2 [7] = assay: Induction of cell cycle arrest in human HepG2 cells assessed as accumulation of cells at S phase at 50 nM by propidium iodide staining based flow cytometric analysis (reference value: 19.34%); type: functional
HepG2 [8] = assay: Induction of cell cycle arrest in human HepG2 cells assessed as accumulation of cells at S phase at 50 nM incubated for 12 hrs by propidium iodide staining based flow cytometric analysis (reference value: 22.36%); type: functional
HepG2 [9] = assay: Induction of cell cycle arrest in human HepG2 cells assessed as accumulation of cells at S phase at 50 nM incubated for 6 hrs by propidium iodide staining based flow cytometric analysis (reference value: 22.36%); type: functional
Tubulin (Homo sapiens) [10] = molecular target: T1, Tubulin (Homo sapiens); assay: Disruption of microtubule assembly in human HepG2 cells assessed as loss of microtubule structure at 100 nM by immunofluorescence analysis; type: cell-based
HepG2 [11] = assay: Induction of cell cycle arrest in human HepG2 cells assessed as accumulation of cells at G2 phase at 50 nM incubated for 12 hrs by propidium iodide staining based flow cytometric analysis (reference value: 15.06%); type: functional
HepG2 [12] = assay: Induction of cell cycle arrest in human HepG2 cells assessed as accumulation of cells at G1 phase at 50 nM incubated for 24 hrs by propidium iodide staining based flow cytometric analysis (reference value: 62.58%); type: functional
HepG2 [13] = assay: Induction of cell cycle arrest in human HepG2 cells assessed as accumulation of cells at G1 phase at 25 nM by propidium iodide staining based flow cytometric analysis (reference value: 72.08 %); type: functional
HepG2 [14] = assay: Induction of cell cycle arrest in human HepG2 cells assessed as accumulation of cells at G2 phase at 25 nM by propidium iodide staining based flow cytometric analysis (reference value: 8.58%); type: functional
HepG2 [15] = assay: Induction of cell cycle arrest in human HepG2 cells assessed as accumulation of cells at G1 phase at 50 nM incubated for 12 hrs by propidium iodide staining based flow cytometric analysis (reference value: 62.58%); type: functional
HepG2 [16] = assay: Induction of cell cycle arrest in human HepG2 cells assessed as accumulation of cells at S phase at 25 nM by propidium iodide staining based flow cytometric analysis (reference value: 19.34%); type: functional
HepG2 [17] = assay: Induction of cell cycle arrest in human HepG2 cells assessed as accumulation of cells at G1 phase at 50 nM incubated for 6 hrs by propidium iodide staining based flow cytometric analysis (reference value: 62.58%); type: functional
A549 = assay: Antiproliferative activity against human A549 cells assessed as cell growth inhibition; type: functional, cell-based
Tubulin (Homo sapiens) [18] = molecular target: T1, Tubulin (Homo sapiens); assay: Inhibition of tubulin (unknown origin) polymerization assessed as reduction in fluorescence intensity at 4 uM; type: protein-complex assay
HepG2 [19] = assay: Inhibition of cell invasion in human HepG2 cells by transwell invasion assay; type: functional, cell-based; details: dose 25-100 nM
HepG2 [20] = assay: Induction of cell cycle arrest in human HepG2 cells assessed as accumulation of cells at G1 phase at 100 nM by propidium iodide staining based flow cytometric analysis (reference value: 72.08 %); type: functional
U-937 = assay: Antiproliferative activity against human U-937 cells assessed as cell growth inhibition; type: functional, cell-based
HepG2 [21] = assay: Induction of cell cycle arrest in human HepG2 cells assessed as accumulation of cells at S phase at 50 nM incubated for 24 hrs by propidium iodide staining based flow cytometric analysis (reference value: 22.36%); type: functional
HepG2 [22] = assay: Induction of cell cycle arrest in human HepG2 cells assessed as accumulation of cells at G2 phase at 50 nM incubated for 24 hrs by propidium iodide staining based flow cytometric analysis (reference value: 15.06%); type: functional
HepG2 [23] = assay: Induction of cell cycle arrest in human HepG2 cells assessed as accumulation of cells at G1 phase at 50 nM by propidium iodide staining based flow cytometric analysis (reference value: 72.08 %); type: functional
HepG2 [24] = assay: Induction of cell cycle arrest in human HepG2 cells assessed as accumulation of cells at G2 phase at 100 nM by propidium iodide staining based flow cytometric analysis (reference value: 8.58%); type: functional
HepG2 [25] = assay: Induction of apoptosis in human HepG2 cells by AnnexinV-FITC/PI-staining based flow cytometry; type: functional, cell-based; details: dose 25-100 nM

Compound: COc1cc(C(/C=C/c2ccc3[nH]ccc3c2)=N/O)cc(OC)c1OC
- Activity (Tubulin (Homo sapiens) [1]): Active
- Activity (HepG2 [2]): 38.86%
- inhibition (HepG2 [3]): Active
- Activity (HepG2 [4]): 23.61%
- IC50 (HepG2 [5]): 65 nM
- Activity (HepG2 [6]): 17.98%
- IC50 (Y79): 251 nM
- Activity (HepG2 [7]): 4.81%
- Activity (HepG2 [8]): 17.79%
- Activity (HepG2 [9]): 18.56%
- Activity (Tubulin (Homo sapiens) [10]): Active
- Activity (HepG2 [11]): 25.73%
- Activity (HepG2 [12]): 60.13%
- Activity (HepG2 [13]): 71.68%
- Activity (HepG2 [14]): 23.54%
- Activity (HepG2 [15]): 56.18%
- Activity (HepG2 [16]): 4.78%
- Activity (HepG2 [17]): 63.46%
- IC50 (A549): 271 nM
- inhibition (Tubulin (Homo sapiens) [18]): Active
- inhibition (HepG2 [19]): Dose-Dependent Effect
- Activity (HepG2 [20]): 6%
- IC50 (U-937): 138 nM
- Activity (HepG2 [21]): 26.95%
- Activity (HepG2 [22]): 26.95%
- Activity (HepG2 [23]): 56.33%
- Activity (HepG2 [24]): 70.39%
- Activity (HepG2 [25]): Dose-Dependent Effect
